Experimental data: patent US12593844B2, “Method and compounds to induce plant tolerance against arthropod pests” (Universiteit Gent, priority 2018, dated 2026)
Where two headings read alike, the source gives them in different places.

Legend:
[1] = tested on: lignification in the Casparian strip; settings: five day old seedlings grown in vitro, continuous exposure to 10 μM; Van de Wouwer et al., 2016; cited from earlier work
C4H gene = C4H gene expression in root system of rice plants after foliar treatment; assay type: in vivo, Oryza sativa cv. Bomba; settings: fourteen-day old rice plants, foliar treatment 24 and 3 hours prior to harvest, 100 μM
From the text: Techniques for measuring and determining the (effect on) activity of C4H are well known to the one of ordinary skill in the art. Useful methods to determine inhibition of C4H activity are (incorporated by reference): • Measurement of the conversion efficiency of trans-cinnamic acid labeled with ^13C or ^14C in the presence of a potential C4H inhibitor in plant cell cultures or in yeast microsomes in which the CYP73A1 is expressed (as described in Schoch et al. 2002; Van de Wouwer et al. 2016; Schalk et al. 1998). Representative inhibition kinetics values obtained in cell suspensions for both competitive and irreversible C4H inhibitors can be found in Table 1 in Schoch et al., 2002 (incorporated by reference). • Inhibition of the C4H enzyme increases the concentration of free trans-cinnamic acid, which is rapidly conjugated in planta. The accumulation of trans-cinnamic acid amino acid conjugates, which can be quantified using HPLC-MS, can be used as a proxy measure for C4H inhibition in planta. This approach is outlined in Steenackers et al. 2016. […] Representative values for the increase in the quantity of trans-cinnamic acid conjugates are found in Supplemental Figure S2 in Steenackers et al. 2016 (incorporated by reference). • Inhibition of the C4H enzyme causes a compensatory upregulation of the C4H gene, as shown in Example 20. […]

[2] = tested on: Arabidopsis thaliana seedlings; assay: Primary root elongation of Arabidopsis thaliana seedlings (IC50-root); assay type: in vivo; settings: continuous exposure of seedlings, unpublished data, read-out: IC50-root (dose required to reduce primary root elongation by 50%)
Tetranychus urticae [3] = assay: Two-spotted spider mite reproduction on tomato after foliar spray; assay type: in vivo; settings: 300 μM foliar spray, ten days after inoculation with ten females
Procedure: Tomato (cv. Moneymaker) seeds were obtained from Vreeken's Zaden (Dordrecht, the Netherlands). Seeds were germinated on potting soil at 22° C.; seedlings were then transferred to individual pots filled with potting soil and placed in a growth chamber at 24° C. with 16 hours per day of fluorescent light.
(§1) A 100 mM piperonylic acid stock was prepared by dissolving piperonylic acid (Sigma-Aldrich, Saint-Louis, USA) in DMSO (Duchefa Biochemie, Haarlem, the Netherlands). Before use, this stock solution was diluted with distilled water to a concentration of 300 μM and mixed with 0.1 v/v % Tween 20. Working solutions of 1000 μM PA (Aculops experiment) were prepared in a similar manner from a 300 mM stock solution. The resulting spraying solution was applied to plants until run-off using an atomizer. […]
Tomato plants in the early four-leaf stage were inoculated with T. urticae by placing ten adult females on the second leaf of each plant. […] All moving mites present on the leaf were counted (regardless of life stage).
Images of tomato leaves damaged by S. exigua were analyzed using the ImageJ software. For T. urticae damage, the total area of the second leaf of each plant was quantified using the polygon selection tool. Then, the total area of chlorotic patches on the leaf was measured in the same manner and the ratio of both values was calculated to obtain the percentage of chlorotic leaf.

Rhopalosiphum padi [4] = assay: Bird cherry-oat aphid reproduction on wheat, first experiment; assay type: in vivo; settings: 300 μM foliar spray, ten days
Procedure: (§2) Winter wheat (cv. Sahara) seeds were obtained from Aveve Agrarisch (Landen, Belgium). Seeds were washed with a 10% ethanol solution to remove residual fungicide traces and then germinated on wet paper at room temperature. Seedlings were transferred to potting soil and placed in a growth chamber at 22° C. with 16 hours per day of fluorescent light.
as §1, with “atomizer. As a control, a solution consisting of an equivalent amount of DMSO and Tween 20 was used in the same manner.” for “atomizer.”
(§3) In the first experiment, R. padi aphids were reared on barley plants grown at room temperature. […] Twenty-four hours later, the number of remaining adults on each pot was recorded. Ten days later, the number of aphids in each pot was counted. The reproductive factor was calculated by dividing the number of aphids counted after ten days by the number of remaining adult females twenty-four hours after inoculation.

Rhopalosiphum padi [5] = assay: Bird cherry-oat aphid reproduction on wheat, second experiment (synchronized aphids); assay type: in vivo; settings: 300 μM foliar spray, ten days
Procedure: as §2
as §1, with “atomizer. As a control, a solution consisting of an equivalent amount of DMSO and Tween 20 was used in the same manner.” for “atomizer.”
as §3, with “second” for “first”

Bemisia tabaci = assay: Tobacco whitefly egg development on cotton after foliar spray; assay type: in vivo; settings: 300 μM foliar spray
Procedure: Cotton seeds were germinated in individual pots filled with potting soil and placed in a greenhouse with supplemental lighting (16 hours of light per day).
(§4) A 100 mM piperonylic acid stock was prepared by dissolving piperonylic acid (Sigma-Aldrich, Saint-Louis, USA) in DMSO (Duchefa Biochemie, Haarlem, the Netherlands). Before use, this stock solution was diluted with distilled water to a concentration of 300 μM and mixed with 0.1 v/v % Tween 20. Working solutions of 1000 μM PA (Aculops experiment) were prepared in a similar manner from a 300 mM stock solution. The resulting spraying solution was applied to plants until run-off using an atomizer. As a control, a solution consisting of an equivalent amount of DMSO and Tween 20 was used in the same manner. Plants were sprayed twice, one and eight days before inoculation. The tomato plants used in the spider mite experiment were sprayed a final time five days after inoculation, but only on the non-inoculated leaves to avoid direct effects of the spray on the mites.
B. tabaci (biotype Q) was reared on cotton plants under controlled laboratory conditions. Approximately sixty mixed-sex adults were collected and placed in ventilated vials attached to the leaves of two-week old cotton plants. After being allowed to oviposit for 24 hours, the adults were removed. Eight days after oviposition, leaves were detached and the number of unhatched eggs, crawlers and nymphs per plant was recorded.

Steneotarsonemus spinki = assay: Greenhouse experiment: rice yield and fertility under panicle rice mite stress; assay type: in vivo
Procedure: Rice seeds (cv. Kitaake) were sterilized and germinated on wet paper in the dark at 30° C. Seedlings were transferred to sterilized potting soil and placed in a climate-controlled compartment at the Ghent University greenhouse complex (Melle, Belgium). The compartment was known to host a natural mite infestation; the causal mite had previously been identified as Steneotarsonemus spinki by professor Thomas van Leeuwen of the agrozoology lab at Ghent University. Pots were arranged in a completely randomized manner in the same tray.
To determine the effects of C4H inhibition on yield and fertility in the presence of mites, rice (Oryza sativa cv. Kitaake) was grown in a greenhouse until maturity and treated with a control or 300 μM PA foliar spray at bi-weekly intervals. This greenhouse is naturally infested with the panicle rice mite (Steneotarsonemus spinki).

Aculops lycopersici [6] = assay: Tomato russet mite population growth on tomato; assay type: in vivo; settings: ten days after inoculation with 30 mites
Procedure: as §4
A. lycopersici was reared on tomato plants in an incubator at 27° C.; 50% RH and 16:8 L:D. For inoculation of the PA-treated (300 μM or 1000 μM) or Control plants, 30 mites were transferred with a fine brush to a small leaf disk (1 cm), which was then placed on top of the plants. The mites were allowed the reproduce on the tomato plants during ten days, after which the total number of mites was compared.

[7] = tested on: Frankliniella occidentalis; assay: Western flower thrips progeny on pepper plants; assay type: in vivo; settings: 300 μM, progeny counted three days after four-day infestation with ten adults (control 19.0±1.84)
Procedure: Pepper seedlings (cv. Cayenne long slim) were transferred to individual pots with potting soil two weeks after sowing. Plants were maintained in a growth room (25° C., 16:8 L:D) for two additional weeks. Plants were removed from the soil and placed with their roots in water (to accommodate the Plexiglas cage system) at the onset of thrips infestation (4 weeks old).
as §4, with “The tomato plants used in the spider mite experiment were sprayed a final time five days after inoculation, but only on the non-inoculated leaves to avoid direct effects of the spray on the mites.” left out
F. occidentalis was reared on bean pods in an incubator at 28° C.; 70% RH and 16:8 L:D. For inoculation of the PA-treated (300 μM) or Control plants, 10 females (two days old since turning adult) were transferred with a fine brush to a pepper plant inside a Plexiglas cage. After four days, all females were removed, while their progeny was counted three days later.

Spodoptera exigua = assay: Acute (direct) toxicity to Spodoptera exigua L3 larvae; assay type: in vivo; settings: 300 μM, out of 30 larvae (control 29)
Procedure: Spodoptera exigua—S. exigua was reared on an artificial diet in a 24° C. incubator. Recently molted L3 larvae were placed in petri dishes containing tissue paper and 2 g of artificial feed pellets. Both tissue paper and pellets were wetted with 10 ml of either distilled water or distilled water containing 300 μM PA. Twenty-four and seventy-two hours later, the number of surviving caterpillars was counted. A caterpillar was considered alive if it was either actively moving, or if it moved when gently prodded. It was also recorded whether a caterpillar was feeding (present on a feed pellet) to measure whether PA-treated feed pellets were repellent to the caterpillar.
S. exigua—Direct toxicity of piperonylic acid (PA) was determined using the protocol outlined in the materials and methods section. Briefly, 30 recently molted L3 larvae were placed per petri dish containing tissue paper and food pellets that had been wetted with either a 300 μM piperonylic acid solution or a water control.

Tetranychus urticae [8] = assay: Acute (direct) toxicity to spider mites sprayed on leaf discs; assay type: in vivo; settings: 300 μM spray, after 24 h
Procedure: Tetranychus urticae—Spider mites of a laboratory reference strain were collected and placed on arenas consisting of a square bean leaf disc, placed on wet cotton wool and lined with paper tissue. Each arena received 25 to 30 adult female mites. The arenas were then sprayed in a custom-build spray tower with either 300 μM PA or control solution, six replicates each. The mites were incubated at 25° C., 18:6 L:D. Mortality was scored after 24 h. Mites were scored as either drowned (in water barrier), alive or dead (not moving its own body length within 10 seconds after prodding with a tiny brush).
T. urticae—Direct toxicity of PA to spider mites was evaluated by spraying mites on leaf disks with either 300 μM PA or control solution.

Aculops lycopersici [9] = assay: Acute (direct) toxicity to russet mites sprayed on leaf disks; assay type: in vivo; settings: 300 μM spray, after 24 h
Procedure: Aculops lycopersici—Tomato russet mites were collected from a lab culture and transferred to a tomato leaf disk placed on agar. Each disk received 25 to 30 adult mites. The disks with mites were then sprayed in a custom-build spray tower with either 300 μM PA or control solution, six replicates each. The russet mites were incubated at 25° C., 18:6 L:D. Mortality was scored after 24 h. Mites were scored as either lost (in agar barrier), alive or dead.
A. lycopersici—Direct toxicity of PA to russet mites was evaluated by spraying mites on leaf disks with either 300 μM PA or control solution.

[10] = tested on: Arabidopsis thaliana seedlings; settings: continuous exposure of seedlings; Steenackers et al. 2016; read-out: IC50-root (dose required to reduce primary root elongation by 50%); cited from earlier work
[11] = rice, 300 μM foliar spray bi-weekly, three months after emergence

## O=C(O)c1ccc(I)cc1 [4-IBA, 4-iodobenzoic acid]
[1]
  increase of the number of non-lignified endodermal cells in the Casparian strip region: 57%

## O=C(O)c1ccc2c(c1)OCO2 [PA, Piperonylic acid]
C4H gene
  increase of C4H expression in the root system: ten-fold
[2]
  IC50: 40 µM
Tetranychus urticae [3]
  change in number of mites present on the leaf vs control: −49%
  change in percentage of visibly chlorotic leaf area vs control: −62%
Rhopalosiphum padi [4]
  change in reproductive factor of R. padi vs control: −32%
Rhopalosiphum padi [5]
  change in reproductive factor of R. padi vs control: 29%
Bemisia tabaci; 24 hours oviposition
  number of eggs deposited on cotton plants: did not affect
Bemisia tabaci; eight days after oviposition (control 3%)
  eggs failed to hatch: 20%
Bemisia tabaci; eight days after oviposition (control 16%)
  eggs developed into nymphs: 9%
Steneotarsonemus spinki; rice cv. Kitaake, 300 μM foliar spray at bi-weekly intervals, three months after emergence
  change in number of seeds vs control: +104%
Steneotarsonemus spinki; [11]
  empty panicles vs control: fewer empty panicles
  tillers developed vs control: more tillers
Steneotarsonemus spinki; seeds from treated plants, seven days on wet paper
  change in seed germination rate vs control: +45%
Aculops lycopersici [6]; 300 μM, not significant (p=0.052)
  reduction of russet mite population growth vs control: about 50%
Aculops lycopersici [6]; 1000 μM, not significant (p=0.089)
  reduction of russet mite population growth vs control: about 50%
[7]
  number of thrips larvae recovered (mean±SE): 11.33±1.82 larvae
Spodoptera exigua; after seventy-two hours
  L3 larvae alive: 27
Spodoptera exigua; after twenty-four hours
  L3 larvae alive: 28
Tetranychus urticae [8]
  spider mite mortality vs control: No significant difference
Aculops lycopersici [9]
  russet mite mortality vs control: No significant difference
[1]
  increase of the number of non-lignified endodermal cells in the Casparian strip region: 134%

## O=C(O)C=Cc1ccc2c(c1)OCO2 [MDCA, 3,4-methylenedioxycinnamic acid]
C4H gene
  increase of C4H expression in the root system: three-fold
[10]
  IC50: 5.07 µM
[1]
  increase of the number of non-lignified endodermal cells in the Casparian strip region: 104%
